# “Also recorded” adds a separate entry of the source. Where a SMILES comes first, the peptide text is derived from it. The star is where a group is joined. Cbz = O=C(OCc1ccccc1)*
# What was measured:
# [1] = test system: zona-enclosed oocytes / boar spermatozoa; experiment: Porcine in vitro fertilization of zona-enclosed (zona-intact) oocytes with inhibitor or antibody in the fertilization medium; assay type: cell-based; details: for Monospermic (number of oocytes) / Not fertilized (%) / Not fertilized (number of oocytes) / Polyspermic (number of oocytes) / Monospermic (%) / Polyspermic (%): 10 uM in culture medium at the time of insemination, 20 h p.i.; for penetration of ZP: 100 uM concentration; for fertilization of zona-enclosed (zona-intact) oocytes: agent in fertilization medium during porcine IVF
# [2] = test system: zona-free oocytes / boar spermatozoa; experiment: Porcine in vitro fertilization of zona-free oocytes; assay type: cell-based
# Method: IVF was performed using zona-enclosed and zona-free (ZF or ZP−) oocytes in the presence or absence of MG132 and antibody MECL-1. Removal of the zona pellucida was accomplished by a brief (30 sec) exposure of oocytes to 0.5% pronase (Sigma, St. Louis, Mo.). Oocytes were washed extensively and ZF oocytes were allowed to recover from enzymatic treatment for 1 h prior to insemination. For IVF, ZF oocytes were co-incubated with 1×10^5 sperm/ml while zona-enclosed/zona-intact (ZI or ZP+) oocytes were treated as described above. Oocytes were fixed 12 h post insemination (p.i.) in 25% acetic acid/ethanol and stained with 1% orcein to determine the incidence of fertilization. In some experiments, oocytes were evaluated by immunofluorescence microscopy, detecting the presence of pronuclei and sperm tails in the zygotic cytoplasm.
# To ascertain that the fertilizing capability of boar spermatozoa was not diminished by some non-specific effect of proteasomal inhibitors on the sperm motility or sperm ability to fuse with the oocyte plasma membrane, porcine oocytes were stripped of ZP and fertilized with acrosome-intact spermatozoa in the presence or absence of MG132 (FIG. 5 A-H). […] MG132 had no effect on the fertilization of zona-intact oocytes when either oocytes or spermatozoa were pre-incubated with it and used for insemination after extensive washing.
# [3] = test system: boar spermatozoa bound to the zona pellucida; experiment: Sperm-zona binding and sperm acrosomal status (DAPI, c-Yes immunofluorescence); assay type: cell-based, porcine
# Method: To evaluate sperm-zona binding and sperm acrosomal status, zona-enclosed oocytes were fixed and the tyrosine kinase c-Yes, known to be present in the subacrosomal and outer acrosomal layer of perinuclear theca in spermatozoa with an intact acrosome (Leclerc and Goupil, 2002) was evaluated by immunofluorescence. The number of spermatozoa bound to the zona pellucida was determined after staining with DAPI. Five eggs per group were counterstained with an antibody against the acrosomal tyrosine kinase c-Yes (see Immunofluorescence) and DAPI and photographed at 60× magnification. ZP-bound acrosome-reacted and acrosome intact spermatozoa were counted and the values were expressed as a percent (%) of acrosome intact sperm/egg. Treatment results were compared by χ2 test and by general linear model procedures of SAS 8.2.
# It was first observed that proteasomal inhibitors lactacystin and MG132 prevent fertilization in the course of studies aimed at confirming the proteasomal route of degradation of the paternal, sperm mitochondria inside the porcine zygote (Sutovsky et al., 2003). This study was followed up on by experiments designed to determine at which step of fertilization the inhibitors exert the block. […] The experiment was repeated four times with consistent results. […] To rule out that MG132 affects sperm viability, sperm-zona binding or acrosomal exocytosis, oocytes fertilized in the presence of 10 μM MG132 were fixed with their zona pellucida intact at 20 h p.i. Sperm heads bound to ZP were detected with DAPI and intact acrosomes were detected by antibodies against tyrosine kinase c-Yes, known to reside in the sub-acrosomal and outer acrosomal layer of perinuclear theca of acrosome-intact spermatozoa (FIG. 1 A-D). Since the spermatozoa in this experiment were pre-labeled with MitoTracker CMTM Ros, the sperm mitochondrial sheaths were rendered detectable inside the fertilized oocytes. […] However, there was no significant difference in the number of sperm bound per egg (99.3 with MG132 vs. 93.3 in control) or in the percentage of acrosome-intact, zona-bound sperm (2.01% with MG132 vs. 2.14% in control).
# [4] = test system: ubiquitin-immuno-reactive ZP proteins; experiment: Western blotting / Coomassie staining of ubiquitin-immuno-reactive ZP proteins after IVF; assay type: cell-based, porcine; details: MG132 in fertilization medium; 6 h p.i.
# Method: SDS-PAGE and Western blotting were carried out as generally described in Sambrook et al. (2001). Oocytes and zygotes were removed from culture at given time points, washed repeatedly in a protein-free TALP HEPES and 350 zygotes per group were boiled for 5 min in […] of loading buffer containing Tris (50 mM), β-mercaptoethanol (5%), glycerol (10%), SDS (2%) and PMSF (100 mM). Boar sperm proteins were extracted by grinding in extraction buffer (50 mM Tris, 20 mM imidazole, 1 mM EDTA, 5 mM benzamidine HCl, 5 μg/ml leupeptine, 1 μg/ml pepstatin A, 100 mM PMSF and 0.1% SDS), centrifuged at 17000×g for 30 min. β-mercaptoethanol, glycerol, SDS were added to the supernatants, achieving the final concentrations as that of the loading buffer. Human spermatozoa were boiled with loading buffer, followed by centrifugation at 25000×g for 30 min to remove the DNA pellet. […] After incubating overnight with the primary anti-ubiquitin antibodies and then with the appropriate biotin-conjugated secondary antibodies, the signals were detected with alkaline phosphatase reaction, using Vectastain ABC-AmP kit (Vector Lab Inc., Burlingame, Calif.).
# Next, it was determined whether some of the ubiquitin-immuno-reactive ZP substrates undergo degradation after sperm binding to ZP, and whether such degradation can be prevented by proteasomal inhibitors. […]
# [5] = test system: bovine ova / bull spermatozoa; experiment: Bovine in vitro fertilization; assay type: cell-based
# Method: The effect of proteasomal interference on the ability of bull spermatozoa to fertilize bovine ova was analyzed in vitro. Specific, fully reversible proteasomal inhibitor MG132 (100 μM) was added to fertilization medium at the time of insemination. This allowed fertilization to occur only in 3 out of […] ova examined at 20 h post insemination (2.8% rate of fertilization; Table 2). […] Proteasomes in pronuclei were detected with an antibody against α-type and β-type proteasomal subunits. DNA was visualized with DAPI (blue).
# However, several groups of ova were preincubated with 100 μM MG132 for 2 hours prior to fertilization to rule out that MG132 could block or hinder fertilization by a direct effect on zona pellucida oolemma or ooplasm, as opposed to an inhibitory effect on sperm acrosome-borne proteasomes (Sutovsky et al., 2003a, b).
# pronuclei of bovine ova = experiment: Pronuclear development in bovine fertilized ova (immunofluorescence); assay type: cell-based
# Method: The ubiquitin-proteasome pathway was until recently ascribed solely to cytoplasmic compartment. The presence and proteolytic activity of proteasomes in the nuclear compartment of […] was analyzed. Specific immune sera were used for the immunolocalization of proteasomal subunits LMP2, α/β and MECL1 in bovine pronuclear zygotes at various stages of pronuclear development. […] Proteasomal subunits started to infiltrate both male and female pronuclei at the initial stage of sperm nuclear decondensation. Both the male and the female pronuclei become occupied by proteasomes prior to reaching full size and apposition. High density of proteasomes was observed inside the apposed, full-sized pronuclei in both monospermic and polyspermic ova, and in cases of asynchronous pronuclear development. […] The sperm tail was visualized by the preincubation of spermatozoa prior to fertilization with a vital mitochondrial dye MitoTracker Green FM (green).
# Such fertilization in presence of low concentration MG132 allowed the observation of the effects of proteasomal interference on pronuclear development. […] DNA was stained with blue fluorecent DAPI and sperm tails inside the fertilized ova were identified by the presence of green fluorescence, which accumulated in sperm mitochondrial sheath during sperm preincubation with MitoTracker GreenFM. […]
# [6] = test system: bovine ova / bull spermatozoa; experiment: Bovine in vitro fertilization; assay type: cell-based; details: 10 μM MG132
# rat ova = details: Josefsberg et al., 2000; cited from earlier work
# [7] = 10 μM MG132, 20 hours post insemination
# [8] = 100 μM at fertilization, 20 h post insemination
# [9] = 100 μM at fertilization, 20 h post insemination, listed as MG 132
# [10] = 100 μM ovum preincubation 2 h, IVF in absence of MG132
smiles,measurement,setting,value
"CC(C)C[C@@H](C=O)NC(=O)[C@H](CC(C)C)NC(=O)[C@H](CC(C)C)NC(=O)OCc1ccccc1 [MG132, Z-Leu-Leu-Leu-CHO] (Cbz-Leu-Leu-Leu-aldehyde)",fertilization,"[1]; 10 μM MG132, fixed at 20 h p.i.",0%
same,Monospermic (number of oocytes),[1],0
same,Not fertilized (%),[1],(100%)
same,Not fertilized (number of oocytes),[1],19
same,Polyspermic (number of oocytes),[1],0
same,penetration of ZP,[1],completely inhibited
same,oocytes in which fertilization was prevented,"[1]; MG132 added at the time of insemination, four trials",100%
same,fertilization of zona-enclosed (zona-intact) oocytes,[1],completely prevented fertilization; also recorded: inhibited in vitro fertilization
same,fertilization of zona-intact oocytes after pre-incubation,"[1]; oocytes or spermatozoa pre-incubated with MG132, extensive washing before insemination",had no effect
same,fertilization of zona-free oocytes,[2]; agent present during porcine IVF,had no effect
same,zona-free oocytes fertilized,"[2]; in the presence or absence of MG132, most polyspermic",92-96%
same,"gamete viability, sperm-egg binding and sperm-acrosome reaction",[3]; [7],does not impair
same,spermatozoa with intact acrosomes on an oocyte (FIG. 1C),[3]; [7],three
same,number of sperm bound per egg,"[3]; 10 μM MG132, 20 h p.i.",99.3
same,"percentage of acrosome-intact, zona-bound sperm","[3]; 10 μM MG132, 20 h p.i.",2.01%
same,sperm-oocyte binding examined by light microscopy,[3]; ZP+/MG132+ zygotes used for western blotting,not affected
same,degradation of ZP-contributed oocyte proteins after IVF,[4],effectively prevented
same,block of bovine fertilization,[5]; 100 μM MG132,completely
same,M-II/partheno (number of ova),[5]; 100 μM at fertilization,40
same,Partheno (number of ova),[5]; 100 μM at fertilization,0
same,"Fertilized (%), rate of fertilization",[5]; [8],2.8%
same,Fertilized (number of ova),[5]; [8],3
same,"Fertilized (%), rate of fertilization",[5]; [9],(2.44%)
same,Fertilized (number of ova),[5]; [9],1
same,"Fertilized (%), fertilization rate",[5]; [10],97.5%
same,Fertilized (number of ova),[5]; [10],40
same,M-II/partheno (number of ova),[5]; [10],1
same,Partheno (number of ova),[5]; [10],0
same,"Fertilized (%), fertilization rate","[5]; 100 μM ovum preincubation 2 h, IVF in absence of MG132, listed as MG 132",(97.56%)
same,effect on fertilization or pronuclear development,[5]; preincubation of unfertilized ova with 100 μM MG132 for 2 h prior to IVF in absence of MG132,had no effect on fertilization or pronuclear development
same,anomalies in oocyte morphology,[5]; treatment during bovine IVF,Neither MG132 nor anti-MECL1 treatments were accompanied by identifiable anomalies
same,pronuclear development in fertilized ova,pronuclei of bovine ova; fertilized in presence of 10 μM MG132,Abnormal pronuclear development and premature chromosome condensation (PCC) was observed
same,import of proteasomal subunits into pronuclei,pronuclei of bovine ova; preincubation of ova with 100 μM MG132 prior to fertilization,had no effect
same,block of bovine fertilization,[6],inhibited the fertilization only partially
same,average fertilization rate,[6]; two separate trials,38.2%
same,progression of meiosis and pronuclear development,rat ova,inhibited
CC(=O)N[C@@H](CSC(=O)[C@]1([C@@H](O)C(C)C)NC(=O)[C@H](C)[C@@H]1O)C(=O)O [lactacystin],Monospermic (%),[1],65%
same,Monospermic (number of oocytes),[1],13
same,Not fertilized (%),[1],(25%)
same,Not fertilized (number of oocytes),[1],5
same,Polyspermic (%),[1],10%
same,Polyspermic (number of oocytes),[1],2
same,Monospermic (%),[1]; listed as Lactacystin,(65%)
same,Polyspermic (%),[1]; listed as Lactacystin,(10%)
same,fertilization at threshold concentration,[1]; 10 uM lactacystin,did not prevent fertilization
same,penetration of ZP,[1],completely inhibited
same,effect on fertilization rates,[1]; added at the time of insemination,dose-dependent effect
same,fertilization of zona-enclosed (zona-intact) oocytes,[1],completely prevented fertilization
same,block of fertilization,[1]; lactacystin at 100 μm concentration,100%

# Reference: patent publication US20100233249A1, “CONTRACEPTIVE METHODS AND COMPOSITIONS RELATED TO PROTEASOMAL INTERFERENCE” (priority 2003, published 2010)
